23 compounds from patent publication US9579315B2, “Methods of treating obstructive lung diseases using bitter tastants” (UNIVERSITY OF MARYLAND, BALTIMORE, priority 2010, dated 2017) can be followed below.

The subject of test [1] is human airway smooth muscle cells. Kind of test: [Ca2+]i increase in cultured primary human airway smooth muscle cells (Fluo-4 AM). Type of test: cell-based. As to conditions: for effect on saccharin-elicited [Ca2+]i increase: absence of extracellular calcium, FIG. 1d; for [Ca2+]i response in human ASM cells: 1.0 mM tastant, FIG. 1c. On the procedure:
(§1) Dose response curves for [Ca^2+]i and ex vivo tracheal ring studies were analyzed by iterative non-linear (sigmoidal) least squares fitting. Results from all studies were compared using paired or unpaired two-way t-tests (depending on study design), with P<0.05 considered significant. When multiple comparisons were sought, an ANOVA with post-hoc t-tests was utilized with a correction for multiple comparisons. Data are presented as mean±standard error.

A further test has as its system isolated human ASM cells. Kind of test: Magnetic twisting cytometry, stiffness of isolated human ASM cells. In kind it is cell-based. The following applies: for effect on saccharin-promoted relaxation of isolated ASM: 1 mM saccharin, U73122 1 μM, H89 100 nM, IbTx and ChTx 100 nM (FIG. 7b); for change in single-cell stiffness from baseline: isolated human ASM cells, FIG. 7a. On the procedure:
Dynamic changes in baseline cell stiffness were measured as an indicator of contraction and relaxation of isolated human ASM cells using magnetic twisting cytometry as described in detail previously^15. In brief, Arg-Gly-Asp coated ferromagnetic microbeads bound to adherent human ASM cells were magnetized horizontally and then twisted in a vertically aligned homogenous magnetic field that was varying sinusoidally in time. Sinusoidal twisting magnetic field caused both a rotation and a pivoting displacement of the bead: such forced bead motions are, in turn, impeded by internal stresses developed by the cell. Lateral bead displacements in response to the resulting oscillatory torque were detected with a spatial resolution of ˜5 nm, and the ratio of specific torque to bead displacements was computed and expressed as the cell stiffness in units of Pascal/nm (Pa/nm). For each individual ASM cell, baseline stiffness was measured for the first 60 sec, and after drug addition stiffness was measured continuously for the next 540 sec. […] For each cell, stiffness was normalized to its baseline stiffness prior to the agonist stimulation.

Another test has as its system ASM cells. Kind of test: Membrane potential of ASM cells (membrane potential-sensitive fluorescent dye). Type of test: cell-based, human. As to conditions: for change of membrane potential: 60 mM KCl, 1.0 μM histamine, 1 mM saccharin or chloroquine.
In a further test the test system is intact mouse tracheas. Kind of test: Ex vivo relaxation of intact mouse tracheal rings (isometric myograph). The following applies: for relaxation of airways contracted by serotonin: 1.0 mM serotonin, FIG. 4b; for EC50: Mus musculus. Here is the method: Briefly, tracheal rings fitted between a fixed wire and a transducer-coupled wire were maintained in Krebs buffer at 37° C. with aeration from 95% O2, 5% CO2.
as §1

The next test deals with BEAS2B cells. The experiment in a line: [Ca2+]i-stimulated dose-response in BEAS2B cells. In kind it is cell-based, human. Here is the method: (§2) In one example, cells are grown in multi-well dishes, loaded with a fluorescence-based calcium indicator dye, and test compounds are added with subsequent monitoring of the change in fluorescence indicative of a change in intracellular calcium [Ca^2+]i release. Test compounds can include, e.g., those with structural similarities to the known bitter taste receptor agonists or antagonists.
(§3) If appropriate, airway cells can also be tested using them within tracheal rings, as described herein and as is well-known in the art.

The test system of a further test is H292 cells. The experiment in a line: [Ca2+]i-stimulated dose-response in H292 cells. The following applies: for EC50: Homo sapiens. Type of test: cell-based, human. Here is the method:
as §2, §3

The test system of another test is mouse model of asthma. Kind of test: Airway resistance in control and ovalbumin-sensitized mice (flexiVent). In kind it is in vivo. As to conditions: for decrease in airway resistance: aerosol during methacholine bronchoconstriction, quinine 150 μg, denatonium 200 μg. Here is the method: Sensitization of 6-week old BALB/c mice was carried out by i.p. injections of […] ovalbumin in 200 μl alum, or alum alone (control) on days 0 and 14. Mice were then challenged with 1.0% aerosolized ovalbumin on days 19, 21 and 24. Twenty-four hours after the last challenge, mice were sedated, intubated and the flexiVent system (SCIREQ) was utilized for ventilation and measurement of airway resistance as previously described^40. Ventilation was at 150 breaths/min with a tidal volume of 240 μl and positive end expiratory pressure of 2.5 cm H2O. After stabilization, mice were challenged with doses of aerosolized methacholine (2.0, 4.0, 8.0 and 16 mg/ml in the nebulizer) until the sustained airway resistance became ˜5-fold greater than baseline. Three minutes after the last […] inhalation, the bitter tastants quinine (150 μg) or denatonium (200 μg), or the β-agonist albuterol (3.0 μg) were administered by aerosol over 10 sec. Resistance measurements (Raw, cm H2O/ml/sec) were taken every 30 sec throughout the experiment.

In test [2] the test system is human ASM cells. The following applies: 0.3 mM saccharin, 1.0 μM histamine.
The subject of test [3] is human ASM cells. Kind of test: PKA-mediated VASP phosphorylation, Western blot in human ASM cells. Type of test: cell-based. The following applies: 1.0 mM chloroquine or saccharin, 10 μM forskolin. (Immunoblotting shows a protein as a band on a membrane.)
Method: Primary human ASM cells were obtained from a commercial source (Clonetics) and maintained as described^31, with experiments performed using cells at passages 3-8. These cells consisted of >95% airway smooth muscle as previously ascertained^31. For detecting changes in [Ca^2+]i attached cells in 96-well plates (80,000 cells/well) were loaded with Fluo-4 AM (BD Biosciences) with probenecid for one hour at 37° C. Receptor agonists were added at the indicated concentrations at 37° C. by an automated pipetting system in triplicate and the 525 nm signals were generated by excitation at 485 nm using a Flex Station II (Molecular Devices). Data was acquired every 1.5 sec for 60 sec. Unless otherwise stated, studies were performed in media containing 1.5 mM calcium. In some studies, ASM were transfected with T2R10 siRNA (Invitrogen) or a scrambled-sequence siRNA control by electroporation (Nucleofector, Lonza) using 4×10^6 cells and 4 μg of siRNA. Twenty-four hours later cells were transferred to the 96-well plates for the [Ca^2+]i assay. […] Samples were acetylated and cAMP measured by a highly sensitive ^125I-cAMP based radioimmunoassay as previously described^32. […] The effects of bitter tastants on membrane potential of whole ASM cells was measured using a membrane potential-sensitive fluorescent dye (Molecular Devices) as described^19 in a 96 well plate format with 50,000 cells/well. […]

Like-named read-outs stand apart in the source and are kept apart here.

As to `NCCOB(c1ccccc1)c1ccccc1` [2APB], the “effect on saccharin-elicited [Ca2+]i increase” value (shortened to “effect … [Ca2+]i increase”) in test [1] was “partially inhibited”.

Take `O=S(=O)(NCCNC/C=C/c1ccc(Br)cc1)c1cccc2cnccc12` [H89]: in the test with isolated human ASM cells, the “effect on saccharin-promoted relaxation of isolated ASM” value (shortened to “effect … of isolated ASM”) is “not blocked”.

On to `[Cl-].[K+]` [KCl], for which, in the test on ASM cells, the “change of membrane potential” value is given as “membrane depolarization”.

In the case of `COC(=O)[C@@H](N)CCCNC(=N)N[N+](=O)[O-]` [L-NAME], in the test on intact mouse tracheas, the “effect on bitter tastant-mediated airway relaxation” value was “not altered”.

Take `C[C@H](NC(=NCC(=O)O)Nc1ccc(C#N)cc1)c1ccccc1` [SC45647]: the “[Ca2+]i response in human ASM cells” value in [1] is “no response”.

With `C/C=C(/C)C(=O)O[C@H]1C(C)=C2[C@H]([C@@H]1OC(=O)CCCCCCC)[C@@](C)(OC(C)=O)C[C@H](OC(=O)CCC)[C@@]1(O)[C@H]2OC(=O)[C@@]1(C)O` [Thapsigargin, thapsigargin], the “effect on chloroquine and other bitter tastant-mediated [Ca2+]i stimulation” value in test [1] (10 μM thapsigargin pre-incubation 30 min) was “blocked”. Moreover, the “effect on chloroquine-mediated relaxation of intact airway rings” value in the test on intact mouse tracheas (10 μM thapsigargin pre-incubation, chloroquine 3.0 mM) was “blocked”.

For the compound `COc1ccc2c(c1)CC[C@@H]1[C@@H]2CC[C@]2(C)[C@@H](NCCCCCCN3C(=O)C=CC3=O)CC[C@@H]12` [U73122], the “effect … [Ca2+]i increase” value in test [1] is “ablated”. In addition, in the test on isolated human ASM cells, the “effect … of isolated ASM” value is “eliminated”.

`COc1cccc2c1cc([N+](=O)[O-])c1c(C(=O)O)cc3c(c12)OCO3` [aristocholic acid]: the “[Ca2+]i response in human ASM cells” value in test [1] was “[Ca^2+]i responses”.

In the case of `CCN(CC)CCCC(C)Nc1ccnc2cc(Cl)ccc12` (stereo not drawn) [chloroquine], in test [1], the “[Ca2+]i response in human ASM cells” value is “evoked increased [Ca^2+]i”. In addition, the EC50 in [1] (Homo sapiens, cultured ASM cells, FIG. 1a, read-out: EC50 for [Ca2+]i release) turned out to be 70 ± 10 µM; in [1] (human airway smooth muscle cells, FIG. 14, read-out: potency, [Ca2+]i dose-response curve), 70 µM; in the test on BEAS2B cells (Homo sapiens, BEAS-2B, read-out: potency, [Ca2+]i-stimulated dose-response curve), 90 µM; with intact mouse tracheas (read-out: EC50 for relaxation, contraction stimulated by acetylcholine), 93 ± 4.3 µM; in the test on intact mouse tracheas (read-out: EC50 for relaxation, contraction stimulated by serotonin), 110 ± 32 µM; with H292 cells (NCI-H292, read-out: potency, [Ca2+]i-stimulated dose-response curve), 74 µM. The “efficacy, net change in fluorescence units” value in test [1] (human airway smooth muscle cells, FIG. 14) is listed as 84,317 fluorescence units. The results for the efficacy in the test with BEAS2B cells and in the test on H292 cells (H292 cells) were 13,995 fluorescence units and 37,136 fluorescence units, respectively. Besides, in the test with intact mouse tracheas, the “relaxation of airways contracted by serotonin” value is “marked relaxation”. Also, the “relaxation of acetylcholine-mediated constriction” value in the test with intact mouse tracheas (submaximal dose of chloroquine (200 μM), 1.0 mM acetylcholine) is given as approximately 67%. For the same compound, in the test on ASM cells, the “change of membrane potential” value is recorded as “membrane hyperpolarization”. In addition, the “change in single-cell stiffness from baseline” value (“change in single-cell stiffness” below) in the test with isolated human ASM cells is on record as “resulted in ASM relaxation”.

Turning to `COc1cc2c(c(OC)c1OC)-c1ccc(OC)c(=O)cc1[C@@H](NC(C)=O)CC2` [colchicine], the “[Ca2+]i response in human ASM cells” value in test [1] was “relatively low response”.

Turning to `CC[N+](CC)(CC(=O)Nc1c(C)cccc1C)Cc1ccccc1` [denatonium], the “[Ca2+]i response in human ASM cells” value in [1] is “evoked increased [Ca^2+]i”. In addition, the “decrease in airway resistance” value with mouse model of asthma (normal mice) came out at 44±6%; in the test with mouse model of asthma (ovalbumin-sensitized mice), 57±4%.

On to `O=C1OC2(c3ccccc31)c1ccc(O)c(O)c1Oc1c2ccc(O)c1O` [gallein], for which the “effect … [Ca2+]i increase” value in [1] was “ablated”.

Turning to `NCCc1c[nH]cn1` [histamine], the “spatial pattern of [Ca2+]i response” value in the test with human ASM cells [2] is “rapid rise in [Ca^2+]i throughout the cell”. Besides, the “change of membrane potential” value with ASM cells was “membrane depolarization”. For the same compound, the “change in single-cell stiffness” value in the test with isolated human ASM cells was “contraction”.

In the case of `COc1ccc2c(c1)c(CC(=O)O)c(C)n2C(=O)c1ccc(Cl)cc1` [indomethacin], in the test with intact mouse tracheas, the “effect on bitter tastant-mediated airway relaxation” value is recorded as “not altered”.

`CC(C)NCC(O)c1ccc(O)c(O)c1` (stereo not drawn) [isoproterenol]: the “relaxation after chloroquine exposure, washout and acetylcholine re-challenge” value in the test on intact mouse tracheas (maximal concentration of isoproterenol (30 μM)) is 29±4.3%. Moreover, the “maximal relaxation response, loss of active contraction / reduction in active tension” value with intact mouse tracheas (tracheas contracted with 1.0 mM acetylcholine) turned out to be 30±9.2%. The “change in single-cell stiffness” value in the test on isolated human ASM cells is “relaxation”.

Turning to `CC(=O)OC(C)C[N+](C)(C)C` (stereo not drawn) [methacholine], the “concentration of inhaled methacholine required to increase baseline airway resistance by 5-fold” value in the test with mouse model of asthma (non-sensitized mice) was determined as 16 mg/mL; in the test with mouse model of asthma (ovalbumin-sensitized mice), 8 mg/mL.

With `C=C[C@H]1C[N@@]2CC[C@H]1C[C@H]2[C@H](O)c1ccnc2ccc(OC)cc12` [quinine], the “[Ca2+]i response in human ASM cells” value in [1] is “[Ca^2+]i responses”. The “relaxation of airways contracted by serotonin” value with intact mouse tracheas was “marked relaxation”. The efficacy with H292 cells (H292 cells) is listed as 133,201 fluorescence units. For the same compound, the EC50 in the test on H292 cells (NCI-H292, H292 cells, read-out: potency, [Ca2+]i-stimulated dose-response curve) amounted to 703 µM. For the same compound, the results for the “decrease in airway resistance” value in the test with mouse model of asthma (normal mice) and in the test with mouse model of asthma (ovalbumin-sensitized mice) were 53±2.96% and 50±8%, respectively.

For `O=C1NS(=O)(=O)c2ccccc21` [saccharin], the “[Ca2+]i response in human ASM cells” value in test [1] was “evoked increased [Ca^2+]i”. For the same compound, the “PKA-mediated VASP phosphorylation” value in the test on human ASM cells [3] was “Neither chloroquine nor saccharin promoted VASP phosphorylation”. In addition, in the test on isolated human ASM cells, the “change in single-cell stiffness” value is on record as “resulted in ASM relaxation”.

In the case of `OCc1ccccc1O[C@@H]1O[C@H](CO)[C@@H](O)[C@H](O)[C@H]1O` [salicin], in [1], the “[Ca2+]i response in human ASM cells” value is “no response”.

For the compound `OC[C@H]1O[C@H](O[C@]2(CCl)O[C@H](CCl)[C@@H](O)[C@@H]2O)[C@H](O)[C@@H](O)[C@H]1Cl` [sucralose], in test [1], the “[Ca2+]i response in human ASM cells” value was “no response”.

Regarding `COC(=O)[C@@H]1[C@H]2C[C@H]3c4[nH]c5ccccc5c4CCN3C[C@@H]2CC[C@@H]1O` [yohimbine], in [1], the “[Ca2+]i response in human ASM cells” value is “[Ca^2+]i responses”.

Consider charybdotoxin, for which the “effect … of isolated ASM” value with isolated human ASM cells is listed as “ablated”.

As to “iberiotoxin (QFTDVDCSVSKECWSVCKDLFGVDRGKCMGKKCRCYQ; UniProt P24663 1-37, looked up) [specific BKCa channel antagonist]”, the “effect on chloroquine-promoted relaxation in the isolated mouse airway” value with intact mouse tracheas (1 mM chloroquine, 100 nM iberiotoxin pretreatment) is listed as “attenuated”. For the same compound, in the test with ASM cells (100 nM iberiotoxin preincubation), the “effect on bitter tastant-promoted membrane hyperpolarization” value is recorded as “completely inhibited”. In addition, in the test on isolated human ASM cells, the “effect … of isolated ASM” value is “ablated”.
